Entries after “also recorded” stand apart in the source; their conditions may differ.
Columns and labels:
[1] = tested on: p-Tau AT8 (Ser202, Thr205); experiment: Western blot of p-Tau AT8 (Ser202, Thr205); type: in vivo, mouse (rTG4510, expressing human P301L tau); details: 2.5 mg/kg; vs DMSO
Description: (§1) Tauopathy rTG4510 mice (i.e., a mouse model that clinically manifest a tauopathy), expressing human P301L tau driven by a CAMrII promoter, approximately 9-12 months old, were treated intraperitoneally (I.P.) for 21 consecutive days, with 2.5 mg/kg (n=6) BK40197, 5.0 mg/kg (n=6) BK40197, or Dimethyl sulfoxide (DMSO) (n=7).
(§2) Samples collected from DMSO, 2.5 mg/kg-, and 5.0 mg/kg-treated animals were electrophoresed in a NuPAGE 10% Bis-Tris gel and transferred to a nitrocellulose membrane. Membranes were then probed for total humnan tau (HT-7 antibody and Tau-5 antibody) and phospho-tau (pTau AT180 antibody and pTau AT8 antibody), as well as actin, and treated with an anti-mouse secondary antibody. before exposure using SuperSignal West Dura (Thermo Fisher Scientific, Waltham, Mass.) substrates. Some animials were excluded from analysis due to low transgene expression.

[2] = tested on: Tauopathy rTG4510 mice expressing human P301L tau; experiment: Overnight nest shredding (nesting) behavior; type: in vivo, mouse; details: 2.5 mg/kg I.P., three weeks
Description: Tauopathy rTG4510 mice (i.e., a mouse model that clinically manifest a tauopathy), expressing human P301L tau driven by a CAMrII promoter, approximately 9-12 months old, were treated intraperitoneally (I.P.) for 21 consecutive days, […], or Dimethyl sulfoxide (DMSO) (n=7).
Then, blinded, independent observers reviewed images of the overnight shredding and the average quality scores were calculated.
For nest shredding, Mann-Whitney analysis was used within groups, between timepoints, and Kruskal-Wallis analysis was used between treatment groups. For open-field studies, : ordinary one-way ANOVA or Student's I test was used. […]
Blinded independent observers reviewed images of the overnight shredding and the average quality scores were calculated.

[3] = tested on: Tauopathy rTG4510 mice expressing human P301L tau; experiment: Open-field behavior; type: in vivo, mouse
Description: as §1
Open-field behavior was assessed in an open-field apparatus where animals were tracked by photocell beams along the arena floor for 60 minutes. Data were collected and analyzed for total distance traveled (cm), total time spent moving (sec), and velocity (distance/time) during the 60-minute trial. A center zone was digitally defined in the software, in the center of the apparatus, and center zone entries during the 60-minute trial were recorded.
For nest shredding, Mann-Whitney analysis was used within groups, between timepoints, and Kruskal-Wallis analysis was used between treatment groups. For open-field studies, : ordinary one-way ANOVA or Student's I test was used.

[4] = target: T1, phosphorylated DDR1 (pDDR1 Tyr513, 296) (Mus musculus, UniProt Q03146); experiment: Western blot of phosphorylated DDR1; type: in vivo, mouse (rTG4510); details: vs DMSO, normalized to actin
T1 construct: Samples collected from DMSO, 2.5 mg/kg-, and 5.0 mg/kg-treated animals were electrophoresed; from tissue; the ELISA samples were total brain lysates
T1 sequence (Q03146 20-911): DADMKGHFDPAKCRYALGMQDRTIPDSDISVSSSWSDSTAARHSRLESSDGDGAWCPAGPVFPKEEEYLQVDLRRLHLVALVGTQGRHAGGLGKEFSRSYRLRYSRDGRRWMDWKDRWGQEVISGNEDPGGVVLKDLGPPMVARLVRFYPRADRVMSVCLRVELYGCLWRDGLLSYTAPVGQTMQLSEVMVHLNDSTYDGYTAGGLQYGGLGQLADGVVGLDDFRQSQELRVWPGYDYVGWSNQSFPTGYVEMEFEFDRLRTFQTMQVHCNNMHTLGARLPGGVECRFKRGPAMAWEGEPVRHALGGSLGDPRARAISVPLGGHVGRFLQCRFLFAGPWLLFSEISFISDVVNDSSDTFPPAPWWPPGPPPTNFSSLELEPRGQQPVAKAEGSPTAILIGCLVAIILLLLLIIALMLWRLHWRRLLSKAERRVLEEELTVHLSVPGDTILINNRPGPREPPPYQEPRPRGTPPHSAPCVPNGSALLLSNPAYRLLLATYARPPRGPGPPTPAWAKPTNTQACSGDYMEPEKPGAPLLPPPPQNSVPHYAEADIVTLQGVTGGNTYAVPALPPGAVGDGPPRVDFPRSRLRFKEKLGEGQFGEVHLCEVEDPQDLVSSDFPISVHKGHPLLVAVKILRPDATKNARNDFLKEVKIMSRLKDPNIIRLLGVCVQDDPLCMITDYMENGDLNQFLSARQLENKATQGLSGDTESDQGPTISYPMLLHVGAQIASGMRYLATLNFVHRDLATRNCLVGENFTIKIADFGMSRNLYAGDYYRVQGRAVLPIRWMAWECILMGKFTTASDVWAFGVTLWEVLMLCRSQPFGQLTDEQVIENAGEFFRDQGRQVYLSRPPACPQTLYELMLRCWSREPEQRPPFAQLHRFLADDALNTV

p-Tau (Ser396) = experiment: pTau Ser396 ELISA of total brain lysates; type: in vivo, mouse (rTG4510, expressing human P301L tau); details: for reduction in pTau Ser396: vs DMSO
Description: as §1
pTau Ser396 (Invitrogen, Cat. No. KHB7031, Carlsbad, Calif.) were performed according to manufacturer's protocol on samples collected from DMSO, 2.5 mg/kg-, and 5.0 mg/kg-treated animals. Samples for ELISA were total brain lysates extracted in IX STEN buffer.

p-Tau AT180 (Thr231) = experiment: Western blot of p-Tau AT180 (Thr231); type: in vivo, mouse (rTG4510, expressing human P301L tau); details: 2.5 mg/kg; vs DMSO
Description: as §1, §2

[5] = tested on: B35 rat neuroblastoma cells; experiment: Lactate dehydrogenase (LDH) assay, cell toxicity; type: cell-based; details: 5 hours, concentration given in the value
Description: (§3) Rat neuroblastoma B35 cells were grown in Dulbecco's Modified Eagle's Medium (DMEM) with 10% Fetal Bovine Serum (FBS) and 1% penicillin/streptomycin and incubated at 37° C. with 5% CO2. For the experiments, cells were transferred to 12-well plates (Cat. #150628, ThermoFisher, Waltham, Mass.) and grown to at least 70% confluence. Transient transfection was performed with 3pg P301L tau (Cat. #30145, Addgene) cDNA or 3pg human a-synuclein cDNA using Fugene HD transfection reagent (Cat. #E2311, Promega, Madison Wis.) for 24 hours. Cells were treated with ImM, I00pM, 10pM, IpM, 0.lIM, 0.01pMl, and 0.001pM dissolved in DMSO or an equivalent SuL of DMSO for 5 hours. Cell culture media was collected and cells were harvested using sodium-tris, EDTA, NP-40 (STEN) buffer and centrifuged at 10,000×g for 20 minutes at 4′C and supernatant was collected. Cell viability was determined via lactate dehydrogenase assay (Cat. #88954, Thermofisher) and MTT assay (Cat. #V13154, Thennofisher). Protein was extracted by removing culture medium and adding 0.2 ml lx STEN buffer (50 mM Tris (pH 7.6), 150 mM NaCl, 2 mM EDTA, 0.2% NP-40, 0.2% BSA, 20 mM PMSF and protease cocktail inhibitor) to cell layer and incubated on ice for 10 minutes. The bottom of the well was scraped and allowed to incubate on ice for an additional 10 minutes. Cell lysates were collected, stored at -80° C., and used for additional analyses.
(§4) Compound 1 (BK5018), Compound 2 (BK5026), Compound 3 (BK5029), Compound 4 (BD5040), Compound 6 (CL2-296). Compound 7 (CL-2-287-1) and Compound 8 (CL-2-287-2) with molecular weights of 284, 339.265, 264, 339, 269 and 247 gimol, respectively, were diluted in Dimethyl Sulfoxide (DMSO) to final concentrations of 100 pM, 10 µM, 1 pM, 0.1 pM, 0.01 pM, and 0.001 pM. Drugs were stored at −80° C.
Cellular cytotoxicity was quantitatively measured by assessment of LDH, a cytosolic enzyme that is released from damaged cells into the cellular media, after exposure to the drug 5 hours after initial dosage. The cell culture media was collected, and an aliquot was coupled with a lactate and NAD+. LDH catalyzes the reaction that converts lactate into pyruvate to produce NADH. NADH, in turn, reduces a tetrazolium salt (NT) into a red fornazan product. The amount of LDH in the media is proportional to the amount of formazan which was measured at 490 nn. The absorbance at 680 nm, to measure the background signal from the instrument, was subtracted from the absorbance at 490 nm to calculate the LDH activity. CelfCulture

tau = experiment: Tau ELISA of whole brain lysates from rTG4510 mice (CL-287-2); type: in vivo, mouse (rTG4510, expressing human P301L Tau); details: 5 mg/kg; 12 month old rTG4510 mice
Description: Tauopathy rTG4510 mice expressing human P301L Tau driven by CAMIII were treated I.P. for 7 or 21 consecutive days with 1.25 mg/kg, 2.5 mg/kg, 5.0 mg/kg of BK40143 or Dimethyl sulfoxide (DMSO).
pTau Ser396 (Invitrogen, KHB7031) ELISA was performed according to manufacturer's protocol on samples collected from DMSO and 2.5mgkg. S.Omg′kg, and 10 mg/kg treated mice. Samples were total brain lysates extracted in lX STEN buffer. Ordinary one-way ANOVA or Student's ! test was used. * P<0.05

[6] = tested on: B35 rat neuroblastoma cells; experiment: MTT assay, cell viability; type: cell-based; details: 5 hours, concentration given in the value
Description: as §3, §4
To measure cell viability, cells were incubated with 500 pL of Dulbecco's Modified Eagle's Medium (DMEf) containing 50 pL of (3-[4,5-dimethylthiazol-2-yl]-2,5-diphenyl-tetrazolium bromide (ivT)) for 5 hours at 37° C. and 5% CO2. The media was aspirated so that 125 uL of media remained. The formazan salts were dissolved in 250 uL of DMSO. Absorbance was read against a blank containing 125 uL of media and MTT, and 250 uL of DMSO at 570 mn.

| Compound | reduction in the ratio of p-Tau AT8 (Ser202, Thr205) to total Tau [1] [%] | nesting raw scores (nesting qualitative score) ([2]; vs 0 weeks (Mann-Whitney P=0.09) and vs DMSO (Kruskal-Wallis P=0.06)) | nesting mean difference scores ([2]; vs DMSO (Kruskal-Wallis P=0.06)) | overall motor ability (open field) ([3]; 5.0 mg/kg I.P., 60 minutes open field) | open-field distance travelled ([3]; 5.0 mg/kg, sixty minutes, vs DMSO (ANOVA p=0.29)) | open-field time spent moving ([3]; 5.0 mg/kg, sixty minutes, vs DMSO (ANOVA p=0.32)) | hyperactivity/anxiety by observed center zone entries ([3]; 5.0 mg/kg, vs DMSO) | open-field velocity ([3]; 5.0 mg/kg, vs DMSO) | reduction in phosphorylated DDR1 (pDDR1 Tyr513, 296) ([4]; 2.5 mg/kg) [%] | reduction in phosphorylated DDR1 (pDDR1 Tyr513, 296) ([4]; 5.0 mg/kg) [%] | reduction in pTau Ser396 (p-Tau (Ser396); 2.5 mg/kg) [%] | reduction in pTau Ser396 (p-Tau (Ser396); 5.0 mg/kg) [%] | p-Tau (Ser396) levels (p-Tau (Ser396); dose dependent, 2.5 and 5.0 mg/kg, quantitative ELISA) | reduction in the ratio of p-Tau (Thr231) (AT180) to total Tau (p-Tau AT180 (Thr231)) [%] | cell toxicity, as measured by LDH assay [5] | tau in whole brain lysates (tau) | cell toxicity, as measured by MTT assay [6] |
| --- | --- | --- | --- | --- | --- | --- | --- | --- | --- | --- | --- | --- | --- | --- | --- | --- | --- |
| Cc1cccc(-c2cc3nccc(N4CCOCC4)c3s2)c1 [BK40197, 4-(2-(m-Tolyl)thieno[3,2-b]pyridin-7-yn)morpholine] | 14 | nesting performance improved; also recorded: increase in performance | nesting performance improved; also recorded: increase in performance | does not alter overall motor ability | non-significant reduction | non-signicant reduction; also recorded: non-significant reduction | no sign of hyperactivity/anxiety; also recorded: no sign of hyperactivity % anxiety | no difference in velocity | 22 | 21 | 11 | 23 | significantly reduces | 22 | – | – | – |
| O=C(O)c1ccccc1Nc1cccc(Cl)c1 [CL-2-287-2, 2-((3-Chlorophenyl)amino)benzoic acid] | – | – | – | – | – | – | – | – | – | – | – | – | – | – | at 100 uM or less did not show increased cell toxicity; also recorded: at 100 pM or less did not show increased cell toxicity | significant reduction | at 10 pM or less did not show increased cell toxicity |

Source: patent US20230095341A1, “COMPOSITIONS AND METHODS FOR TREATING NEURODEGENERATIVE, MYODEGENERATIVE, AND LYSOSOMAL STORAGE DISORDERS” (GEORGETOWN UNIVERSITY, priority 2020, published 2023)
